From the supplement of paper PMC10627819
≈ marks a conversion by molar mass, not a printed value.

Tests used:
S. aureus DSM 20231 [1] = assay: Bliss interaction score (quartile over a dose matrix) (fitness difference); higher = more antagonism (negative = synergy)
Method in brief: (§1)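 Quartiles of the Bliss score were taken over technical, biological and donor/recipient replicates. That score is observed fitness minus the product of the single-drug fitness values, which were inferred from combination data. Fitness itself is OD595 at entry into stationary phase divided by the plate's robust no-drug mean, with a cap at 1.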

S. pneumoniae D39V [2] = assay: as above
Method in brief: as §1

B. subtilis 168 [3] = assay: as above
Method in brief: as §1

S. aureus Newman [4] = assay: as above
Method in brief: as §1

S. aureus DSM 20231 [5] = assay: fitness (endpoint OD595 vs no drug) (fraction); higher = more growth
Method in brief: (§2)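 Each well of a 384-well plate received 30 µl of culture at OD595 0.01, or 55 µl for S. pneumoniae. TSB, LB Lennox or CY served as media at 37 °C. OD595 was taken every 30 min for 14 h and corrected by subtracting the first reading. Fitness is the optical density at stationary-phase entry divided by the robust mean of no-drug controls, capped at 1.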

S. pneumoniae D39V [6] = assay: as above
Method in brief: as §2

B. subtilis 168 [7] = assay: as above
Method in brief: as §2

S. aureus DSM 20231 [8] = test system: S. aureus DSM 20231
S. pneumoniae D39V [9] = test system: S. pneumoniae D39V
S. aureus Newman [10] = test system: S. aureus Newman
S. aureus Newman [11] = assay: fitness (endpoint OD595 vs no drug) (fraction); higher = more growth
Method in brief: as §2
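Wherever Bliss interaction score (quartile over a dose matrix) is given: first quartile when negative (synergy) and third quartile when positive (antagonism).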

CC(=O)NC[C@H]1CN(c2ccc(N3CCOCC3)c(F)c2)C(=O)O1 [Linezolid] + CC1=C\[C@@H](O)CC(=O)Cc2nc(co2)C(=O)N2CCC=C2C(=O)O[C@H](C(C)C)[C@H](C)/C=C/C(=O)NC\C=C\1 [Virginiamycin M1]
Conditions	Bliss interaction score
B. subtilis 168 [3]	0.0733
S. aureus DSM 20231 [1]	0.0505
S. aureus Newman [4]	0.0286
S. pneumoniae D39V [2]	-0.0638

Conditions	fitness
B. subtilis 168 [7], first compound 0.125 µg/mL, partner 0.0625 µg/mL	0.57
B. subtilis 168 [7], first compound 0.125 µg/mL, partner 0.125 µg/mL	0.572
B. subtilis 168 [7], first compound 0.125 µg/mL, partner 0.25 µg/mL	0.578
B. subtilis 168 [7], first compound 0.25 µg/mL, partner 0.0625 µg/mL	0.0596
B. subtilis 168 [7], first compound 0.25 µg/mL, partner 0.125 µg/mL	0.0652
B. subtilis 168 [7], first compound 0.25 µg/mL, partner 0.25 µg/mL	0.0843
B. subtilis 168 [7], first compound 0.5 µg/mL, partner 0.0625 µg/mL	0.0436
B. subtilis 168 [7], first compound 0.5 µg/mL, partner 0.125 µg/mL	0.0429
B. subtilis 168 [7], first compound 0.5 µg/mL, partner 0.25 µg/mL	0.0502
S. aureus DSM 20231 [5], first compound 0.125 µg/mL, partner 0.0625 µg/mL	0.884
S. aureus DSM 20231 [5], first compound 0.125 µg/mL, partner 0.125 µg/mL	0.951
S. aureus DSM 20231 [5], first compound 0.125 µg/mL, partner 0.25 µg/mL	0.826
S. aureus DSM 20231 [5], first compound 0.25 µg/mL, partner 0.0625 µg/mL	0.589
S. aureus DSM 20231 [5], first compound 0.25 µg/mL, partner 0.125 µg/mL	0.614
S. aureus DSM 20231 [5], first compound 0.25 µg/mL, partner 0.25 µg/mL	0.638
S. aureus DSM 20231 [5], first compound 0.5 µg/mL, partner 0.0625 µg/mL	0.186
S. aureus DSM 20231 [5], first compound 0.5 µg/mL, partner 0.125 µg/mL	0.156
S. aureus DSM 20231 [5], first compound 0.5 µg/mL, partner 0.25 µg/mL	0.196
S. pneumoniae D39V [6], first compound 0.105 µg/mL, partner 0.5 µg/mL	0.849
S. pneumoniae D39V [6], first compound 0.105 µg/mL, partner 1 µg/mL	0.881
S. pneumoniae D39V [6], first compound 0.105 µg/mL, partner 2 µg/mL	0.856
S. pneumoniae D39V [6], first compound 0.2 µg/mL, partner 2 µg/mL	0.775
S. pneumoniae D39V [6], first compound 0.21 µg/mL, partner 0.5 µg/mL	0.763
S. pneumoniae D39V [6], first compound 0.21 µg/mL, partner 1 µg/mL	0.756
S. pneumoniae D39V [6], first compound 0.21 µg/mL, partner 2 µg/mL	0.769
S. pneumoniae D39V [6], first compound 0.4 µg/mL, partner 2 µg/mL	0.677
S. pneumoniae D39V [6], first compound 0.42 µg/mL, partner 0.5 µg/mL	0.496
S. pneumoniae D39V [6], first compound 0.42 µg/mL, partner 1 µg/mL	0.486
S. pneumoniae D39V [6], first compound 0.42 µg/mL, partner 2 µg/mL	0.39
S. pneumoniae D39V [6], first compound 0.8 µg/mL, partner 2 µg/mL	0.458

one replicate
Conditions	fitness
B. subtilis 168 [7], first compound 0.0625 µg/mL, partner 0.0625 µg/mL	0.851
B. subtilis 168 [7], first compound 0.0625 µg/mL, partner 0.125 µg/mL	0.915
B. subtilis 168 [7], first compound 0.0625 µg/mL, partner 0.25 µg/mL	0.879
S. aureus DSM 20231 [5], first compound 0.125 µg/mL, partner 0.5 µg/mL	0.873
S. aureus DSM 20231 [5], first compound 0.125 µg/mL, partner 1 µg/mL	0.759
S. aureus DSM 20231 [5], first compound 0.25 µg/mL, partner 0.5 µg/mL	0.675
S. aureus DSM 20231 [5], first compound 0.25 µg/mL, partner 1 µg/mL	0.63
S. aureus DSM 20231 [5], first compound 0.5 µg/mL, partner 0.5 µg/mL	0.262
S. aureus DSM 20231 [5], first compound 0.5 µg/mL, partner 1 µg/mL	0.296
S. aureus DSM 20231 [5], first compound 1 µg/mL, partner 0.0625 µg/mL	0.0385
S. aureus DSM 20231 [5], first compound 1 µg/mL, partner 0.125 µg/mL	0.0443
S. aureus DSM 20231 [5], first compound 1 µg/mL, partner 0.25 µg/mL	0.0419
S. pneumoniae D39V [6], first compound 0.2 µg/mL, partner 0.15 µg/mL	0.829
S. pneumoniae D39V [6], first compound 0.2 µg/mL, partner 0.3 µg/mL	0.825
S. pneumoniae D39V [6], first compound 0.2 µg/mL, partner 0.5 µg/mL	0.861
S. pneumoniae D39V [6], first compound 0.2 µg/mL, partner 1 µg/mL	0.81
S. pneumoniae D39V [6], first compound 0.4 µg/mL, partner 0.15 µg/mL	0.738
S. pneumoniae D39V [6], first compound 0.4 µg/mL, partner 0.3 µg/mL	0.721
S. pneumoniae D39V [6], first compound 0.4 µg/mL, partner 0.5 µg/mL	0.785
S. pneumoniae D39V [6], first compound 0.4 µg/mL, partner 1 µg/mL	0.67
S. pneumoniae D39V [6], first compound 0.8 µg/mL, partner 0.15 µg/mL	0.546
S. pneumoniae D39V [6], first compound 0.8 µg/mL, partner 0.3 µg/mL	0.577
S. pneumoniae D39V [6], first compound 0.8 µg/mL, partner 0.5 µg/mL	0.562
S. pneumoniae D39V [6], first compound 0.8 µg/mL, partner 1 µg/mL	0.376

CC[C@H]1OC(=O)[C@H](C)[C@@H](O[C@H]2C[C@@](C)(OC)[C@@H](O)[C@H](C)O2)[C@H](C)[C@@H](O[C@@H]2O[C@H](C)C[C@H](N(C)C)[C@H]2O)[C@](C)(O)C[C@@H](C)C(=O)[C@H](C)[C@@H](O)[C@]1(C)O [Erythromycin]
Conditions	MIC [µg/mL]
S. aureus DSM 20231 [8]	0.5 (≈ 0.681 µM)
S. aureus Newman [10]	0.5 (≈ 0.681 µM)
S. pneumoniae D39V [9]	0.123 (≈ 0.168 µM)

fitness
Conditions	0.0312 µg/mL	0.0625 µg/mL	0.125 µg/mL	0.25 µg/mL	0.5 µg/mL
B. subtilis 168 [7]	0.926	0.704	0.0499	0.0212	–
S. aureus Newman [11]	0.964	0.889	0.594	0.111	0.0101
